Source: ChEMBL document CHEMBL3739410, “The natural product brartemicin is a high affinity ligand for the carbohydrate-recognition domain of the macrophage receptor mincle” (Medchemcomm, 2015)

Organism: Bos taurus
Assay: Displacement of radioiodinated Man31-bovine serum albumin from biotin-tagged bovine mincle CRD after 2 hr by scintillation counting analysis relative to alpha,alpha-trehalose

Ratio Ki: 290
SMILES: Cc1cc(O)cc(O)c1C(=O)OC[C@H]1O[C@H](O[C@H]2O[C@H](COC(=O)c3c(C)cc(O)cc3O)[C@@H](O)[C@H](O)[C@H]2O)[C@H](O)[C@@H](O)[C@@H]1O
